In ChEMBL document CHEMBL4715785, “Pyrazolo[1,5a]pyrimidines as a new class of FUSE binding protein 1 (FUBP1) inhibitors” (Bioorg Med Chem, 2016):
Calls of active or inactive are those of the source. The rule behind the calls is not given here.

Legend:
[1] = molecular target: T1, Far upstream element-binding protein 1 (Homo sapiens, UniProt Q96AE4); assay: Inhibition of 6xHis-tagged human FUBP1 expressed in HEK293T cells assessed as reduction in FUBP1 interaction with biotinylated NLC chip immobilized FUSE p21 oligonucleotide incubated for 21 hrs by SPR analysis
T1 sequence (Q96AE4 whole entry): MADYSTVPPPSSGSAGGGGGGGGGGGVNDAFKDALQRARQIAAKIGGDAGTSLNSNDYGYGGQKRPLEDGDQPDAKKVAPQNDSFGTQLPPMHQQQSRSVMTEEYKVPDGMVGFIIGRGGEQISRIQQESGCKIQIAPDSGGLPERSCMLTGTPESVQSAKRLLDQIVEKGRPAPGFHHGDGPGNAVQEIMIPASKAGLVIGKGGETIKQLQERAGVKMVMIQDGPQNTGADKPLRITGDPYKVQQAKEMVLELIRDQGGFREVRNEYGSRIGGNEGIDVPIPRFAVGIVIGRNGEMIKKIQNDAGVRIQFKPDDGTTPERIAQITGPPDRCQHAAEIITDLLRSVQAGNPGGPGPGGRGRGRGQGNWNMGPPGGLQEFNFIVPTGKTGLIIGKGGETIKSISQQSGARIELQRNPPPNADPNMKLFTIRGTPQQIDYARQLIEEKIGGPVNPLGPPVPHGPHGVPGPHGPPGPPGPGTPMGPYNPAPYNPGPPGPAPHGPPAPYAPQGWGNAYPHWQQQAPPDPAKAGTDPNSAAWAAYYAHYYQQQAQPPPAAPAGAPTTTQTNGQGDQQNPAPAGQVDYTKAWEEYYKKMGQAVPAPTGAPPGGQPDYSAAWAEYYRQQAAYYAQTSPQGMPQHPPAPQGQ

HepG2 [2] = assay: Induction of cell death in human HepG2 cells assessed as increase in number of dead cells at 10 to 20 uM measured after 72 hrs; assay type: functional, cell-based; details: dose 10-20 µM
Hep 3B2 [3] = assay: Induction of cell death in human Hep3B cells assessed as increase in number of dead cells at 10 to 20 uM measured after 24 hrs; assay type: functional, cell-based; details: dose 10-20 µM
HepG2 [4] = assay: Decrease in cell expansion in human HepG2 cells at 10 to 20 uM measured after 48 to 72 hrs by Neubauer chamber method; assay type: functional, cell-based; details: dose 10-20 µM, time 48-72 hrs
Huh-7 = assay: Decrease in cell expansion in human Huh-7 cells at 10 to 20 uM measured after 24 hrs by Neubauer chamber method; assay type: functional, cell-based; details: dose 10-20 µM
Hep 3B2 [5] = assay: Decrease in cell expansion in human Hep3B cells at 10 to 20 uM measured after 48 to 72 hrs by Neubauer chamber method; assay type: functional, cell-based; details: dose 10-20 µM, time 48-72 hrs
Hep 3B2 [6] = assay: Cell cycle arrest in human Hep3B cells assessed as accumulation at sub-G1 phase at 10 uM measured after 24 hrs by propidium iodide and RNase A staining based Nicoletti assay (reference value: 2.5 %); assay type: functional
Hep 3B2 [7] = assay: Cell cycle arrest in human Hep3B cells assessed as accumulation at sub-G1 phase at 20 uM measured after 24 hrs by propidium iodide and RNase A staining based Nicoletti assay (reference value: 2.5 %); assay type: functional

SMILES	IC50 ([1]; hek293t)	further results
FC(F)(F)c1cc(-c2cccc(Cl)c2)nc2cc(-c3cccs3)nn12	Not Active	
FC(F)(F)c1cc(-c2cccnc2)nc2cc(-c3cccs3)nn12		IC50 ([1]; read-out: IC50): > 100 µM
FC(F)(F)c1cc(-c2ccccc2)nc2cc(-c3cccs3)nn12		IC50 ([1]; read-out: IC50): > 100 µM
COc1ccc(-c2cc(C(F)(F)F)n3nc(-c4ccccc4)cc3n2)cc1OC	Not Active	
COc1ccc(-c2cc(C(F)(F)F)n3nc(-c4ccco4)cc3n2)cc1	Not Active	
FC(F)(F)c1cc(-c2ccc3c(c2)CCC3)nc2cc(-c3ccco3)nn12	Not Active	
COc1ccc(-c2cc(C(F)(F)F)n3nc(C4CC4)cc3n2)cc1OC		IC50 ([1]; read-out: IC50): 102 µM
FC(F)(F)c1cc(-c2ccc3ccccc3c2)nc2cc(-c3ccco3)nn12	Not Active	
COc1ccc(-c2cc(C(F)(F)F)n3nc(-c4cccs4)cc3n2)cc1OC		Activity (HepG2 [2]): inactive; Activity (Hep 3B2 [3]): Active; Activity (HepG2 [4]): Active; Activity (Huh-7): Active; Activity (Hep 3B2 [5]): Active; Activity (Hep 3B2 [6]): 7.7%; Activity (Hep 3B2 [7]): 16.1%
O=[N+]([O-])c1cccc(-c2cc(C(F)(F)F)n3nc(-c4ccco4)cc3n2)c1	Not Active	
FC(F)(F)c1cc(-c2ccc(Cl)cc2)nc2cc(C3CC3)nn12	Not Active	
COc1ccc(-c2cc(C(F)(F)F)n3nc(-c4cccs4)cc3n2)cc1		IC50 ([1]; read-out: IC50): > 100 µM
Fc1ccc(-c2cc(C(F)(F)F)n3nc(-c4cccs4)cc3n2)cc1	Not Active	
FC(F)(F)c1cc(-c2cccs2)nc2cc(-c3cccs3)nn12		IC50 ([1]; read-out: IC50): > 100 µM
FC(F)(F)c1cc(-c2ccc(Cl)cc2)nc2cc(-c3cccs3)nn12		IC50 ([1]; read-out: IC50): > 100 µM
FC(F)(F)c1cc(-c2ccncc2)nc2cc(-c3cccs3)nn12		IC50 ([1]; read-out: IC50): > 100 µM

The next lines start with results.

IC50 ([1]; hek293t)	SMILES	further results
Not Active	FC(F)(F)c1cc(-c2ccccn2)nc2cc(C3CC3)nn12	
Not Active	FC(F)(F)c1cc(-c2ccc(Cl)cc2)nc2cc(-c3ccco3)nn12	
Not Active	FC(F)(F)c1cc(-c2ccncc2)nc2cc(-c3ccco3)nn12	
Not Active	Cc1cc2nc(-c3ccncc3)cc(C(F)(F)F)n2n1	
Not Active	Cc1cc(C(F)(F)F)n2nc(-c3cccs3)cc2n1	
Not Active	COc1ccc(-c2cc(C(F)(F)F)n3nc(C(C)(C)C)cc3n2)cc1OC	
Not Active	FC(F)(F)c1cc(-c2cccs2)nc2cc(-c3ccco3)nn12	
Not Active	FC(F)(F)c1cc(-c2ccc3c(c2)OCO3)nc2cc(-c3ccco3)nn12	
Not Active	FC(F)(F)c1cc(-c2nccs2)nc2cc(-c3cccs3)nn12	
Not Active	FC(F)(F)c1cc(-c2ccco2)nc2cc(-c3ccco3)nn12	
Not Active	COc1ccc(-c2cc(C(F)(F)F)n3nc(-c4ccc(Cl)cc4)cc3n2)cc1OC	
